According to patent publication US20250333394A1, “Tiparp Inhibitor Compounds” (AbbVie Inc., priority 2024, published 2025):
Where two headings read alike, the source gives them in different places.

Experiments:
DLD-1 BRCA2 (−/−) cells = assay: CellTiter-Glo DLD-1 BRCA2 (−/−) cell assay for PARP1/2 inhibition; format: cell-based; conditions: 6 days, read-out: DLD-1 BRCA2 (−/−) CTG EC50
From the text: (§1) The DLD-1 BRCA2 (−/−) CellTiter-Glo® assay measured the synthetic lethality of PARP1/2 inhibitors and was used as a surrogate to allow measurement of activity of both PARP1 and PARP2 in cells. If PARP1 and PARP2 are inhibited and are trapped onto chromatin during DNA replication, there is replication fork stalling and accumulation of double strand breaks. In BR CA wild-type cells, the resulting double strand DNA breaks are repaired via homologous recombination. In cells with mutation of BRCA1 or BRCA2, homologous recombination repair of DNA double strand breaks is defective, and cell death occurs after PARP1/2 inhibitor treatment (Lord C J, Ashworth A. PARP inhibitors: synthetic lethality in the clinic. Science. 2017 Mar. 17; 355(6330):1152-1158). Testing compounds in viability assays with the DLD-1-BR CA 2 (−/−) and DLD-1 parent cell enabled assessment on PARP1/2-dependent (cytotoxicity in the BRCA2 (−/−) cells only) vs. non-selective cytotoxicity in both cell lines.
(§2) Compound stock solutions (10 mM) were serially diluted in 3-fold increments in dimethyl sulfoxide (DMSO). Sample aliquots (120 nL) were dispensed into Corning® 384-well Flat Clear Bottom White Polystyrene TC-treated Microplates (Corning Life Sciences, Corning, NY, USA) using an ECHO® 550 acoustic Labcyte dispenser (Beckman-Coulter Life Sciences, Indianapolis, IN, USA) to achieve concentrations between 30 μM and 0.5 nM in the assay. In the assay, 40 μL of 500 DLD-1 parent cells (HORIZON® Therapeutics, Deerfield, IL, USA) or 40 μL of 1200 DLD-1-BRCA2 (−/−) cells (HORIZON Therapeutics) in complete growth medium containing RPMI 1640 growth medium (ThermoFisher Scientific, Waltham, MA, USA) supplemented with 20 mg/L L-glutamate, 25 mM HEPES (4-(2-hydroxyethyl)-1-piperazineethanesulfonic acid), 10% (v/v) heat inactivated FBS (fetal bovine serum), and 1% (w/v) Penicillin-Streptomycin were added.
(§3) Duplicate cell plates with 40 μL cells/well along with various concentrations of compounds were kept in Nunc™ Square BioAssay Dishes (Thermo Fisher Scientific) at 98% relative humidity in a 5% CO2 incubator at 37° C. for 6 days. On day 7, plates were moved to ambient lab conditions for 10 minutes until the temperature equilibrated. Following equilibration, CellTiter-Glo® Luminescent Cell Viability Assay reagent (Promega™, Madison, WI, USA) was added (15 μL) to each well of the plates. After a 20 minutes incubation, luminescence was detected using a ViewLux™ microplate imager (PerkinElmer, Waltham, MA, USA). Data analysis was performed using GraphPad Prism (Dotmatics, Boston, MA, USA).

PARP1 GST = PARP1 GST (Homo sapiens (Human), UniProt P09874); assay: TR-FRET binding assay, PARP1; conditions: Probe 2, 2 hours incubation
Chain of PARP1 GST (P09874 whole entry): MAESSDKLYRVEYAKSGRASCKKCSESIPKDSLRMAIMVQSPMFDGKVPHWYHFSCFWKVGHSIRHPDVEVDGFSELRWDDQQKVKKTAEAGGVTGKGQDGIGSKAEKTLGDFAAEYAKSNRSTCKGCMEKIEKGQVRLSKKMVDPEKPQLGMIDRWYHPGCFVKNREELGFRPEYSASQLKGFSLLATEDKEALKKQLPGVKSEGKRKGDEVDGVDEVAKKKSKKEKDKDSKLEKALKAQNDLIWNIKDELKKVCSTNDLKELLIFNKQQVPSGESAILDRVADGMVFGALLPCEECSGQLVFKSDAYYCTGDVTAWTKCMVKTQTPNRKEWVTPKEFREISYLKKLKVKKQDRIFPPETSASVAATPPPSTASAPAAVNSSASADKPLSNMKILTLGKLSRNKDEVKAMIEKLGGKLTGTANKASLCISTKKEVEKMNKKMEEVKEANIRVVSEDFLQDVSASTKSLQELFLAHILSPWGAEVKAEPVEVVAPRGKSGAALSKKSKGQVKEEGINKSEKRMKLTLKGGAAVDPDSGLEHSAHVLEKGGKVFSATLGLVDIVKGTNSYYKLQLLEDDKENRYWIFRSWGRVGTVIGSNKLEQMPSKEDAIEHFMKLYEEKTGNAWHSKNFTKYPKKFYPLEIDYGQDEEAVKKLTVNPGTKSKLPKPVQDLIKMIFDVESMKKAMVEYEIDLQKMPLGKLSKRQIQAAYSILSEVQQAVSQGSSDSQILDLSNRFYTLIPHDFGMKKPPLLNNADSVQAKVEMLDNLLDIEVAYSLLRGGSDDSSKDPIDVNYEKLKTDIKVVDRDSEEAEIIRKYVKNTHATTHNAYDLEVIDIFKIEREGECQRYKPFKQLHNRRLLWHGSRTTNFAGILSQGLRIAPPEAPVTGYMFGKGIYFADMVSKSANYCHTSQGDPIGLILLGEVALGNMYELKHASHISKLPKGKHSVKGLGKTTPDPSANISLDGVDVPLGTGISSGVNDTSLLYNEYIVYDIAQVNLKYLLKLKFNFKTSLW
Method: (§4) TR-FRET assays were used to measure the binding of compounds to TIPARP and PARP1, and to characterize biochemical selectivity. Compound stock solutions (10 mM) were serially diluted in 3-fold increments in dimethyl sulfoxide (DMSO). Diluted compounds were dispensed (30 nL) into white ProxiPlate-384-well plates (PerkinElmer, Waltham, MA, USA) using an ECHO® 550 acoustic Labcyte dispenser (Beckman-Coulter Life Sciences, Indianapolis, IN, USA) to achieve a final starting concentration of 30 μM to 0.5 nM in the assay. This was followed by addition of 5 μL of 2× protein/probe mix (Table 2) made in assay buffer (Tris-HCl 50 mM pH 8.0; 5 mM MgCl2; 5 μM ZnCl2; 1 mM DTT (dithiothreitol); 0.15% BSA (bovine serum albumin) (w/v); and 0.01% TritonX-100 (w/v)) at final concentrations listed in Table 2. Subsequently, 5 μL of 2× antibody (Tb-labeled anti-GST antibody, Thermo Fisher Scientific, Waltham, MA, USA) in HEPES buffered saline was added to each well at a final concentration of 1 nM. The samples were then incubated for 2 hours under ambient conditions. Fluorescence was measured and TR-FR ET ratios were determined on an EnVision multimode plate reader (PerkinElmer) using a 520 nanometer (nm) excitation wavelength and collecting fluorescence emission at 495 nm.

NCI-H1373 cells = assay: NCI-H1373 CellTiter-Glo cell assay for TIPARP inhibition; format: cell-based, human; conditions: 6 days, 100 nM 10-Cl-BBQ in medium, read-out: NCI-H1373 CTG EC50
Method: The NCI-H1373 CellTiter-Glo® assay was used to determine cell numbers after TIPARP inhibition-induced cell cycle arrest, and enabled screening of compounds for cellular TIPARP inhibition potency.
Compound stock solutions (10 mM) were serially diluted in 3-fold increments in dimethyl sulfoxide. Sample aliquots (120 nL) were dispensed into Corning® 384-well Flat Clear Bottom White Polystyrene TC-treated Microplates (Corning Life Sciences, Corning, NY, USA) using an ECHO® 550 acoustic Labcyte dispenser (Beckman-Coulter Life Sciences, Indianapolis, IN, USA) to achieve final concentrations between 30 μM and 0.5 nM in the assay. This was followed by the addition of 40 μL of 1000 NCI-H1373 cells (ATCC®, Manassas, VA, USA) in complete growth medium RPMI 1640 growth medium (Thermo Fisher Scientific, Waltham, MA, USA) supplemented with 20 mg/L L-glutamate, 25 mM HEPES (4-(2-hydroxyethyl)-1-piperazineethanesulfonic acid), 10% (v/v) heat inactivated FBS (fetal bovine serum), 1% (w/v) penicillin-streptomycin, and 100 nM 10-Cl-BBQ (10-chloro-7H-benzimidazo[2,1-a]benz[de]isoquinolin-7-one, (Tocris, Minneapolis, MN, USA). Duplicate cell plates with 40 μL cells/well along with various concentrations of compounds were kept in Nunc™ Square BioAssay Dishes (Thermo Fisher Scientific) at 98% relative humidity in a 5% C02 incubator at 37° C. for 6 days. On day 7, plates were moved to ambient lab conditions for 10 minutes until the temperature equilibrated. Following equilibration, CellTiter-Glo® Luminescent Cell Viability Assay reagent (Promega™, Madison, WI, USA) was added (15 μL) to each well of the plates. After a 20 minutes incubation, luminescence was detected using a ViewLux™ microplate imager (PerkinElmer, Waltham, MA, USA). Data analysis was performed using GraphPad Prism (Dotmatics, Boston, MA, USA).

DLD-1 parent cells = assay: CellTiter-Glo DLD-1 parent cell assay; format: cell-based; conditions: 6 days, read-out: DLD-1 CTG EC50
From the text: as §1, §2, §3

TIPARP GST-(TEV) = TIPARP GST-(TEV) (Homo sapiens (Human), UniProt Q7Z3E1); assay: TR-FRET binding assay, TIPARP; conditions: for IC50: TR-FRET, Probe 1, 2 hours incubation; for PARP1/TIPARP IC50 Ratio: ratio of PARP1 GST IC50 to TIPARP GST-(TEV) IC50
Chain of TIPARP GST-(TEV) (Q7Z3E1 441-657): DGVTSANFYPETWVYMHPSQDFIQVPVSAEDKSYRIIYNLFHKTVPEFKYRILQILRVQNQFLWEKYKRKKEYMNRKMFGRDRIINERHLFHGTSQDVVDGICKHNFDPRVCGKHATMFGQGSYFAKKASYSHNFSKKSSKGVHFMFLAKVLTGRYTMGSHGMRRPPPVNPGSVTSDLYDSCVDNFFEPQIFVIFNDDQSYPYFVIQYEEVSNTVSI
From the text: as §4, with “The full-length cDNA encoding the human TIPARP (NP_001171647.1, UniProtKB-Q7Z3E1) of 657 amino acids was the template to generate the expression construct. […] The TIPARP fusion protein includes GST, glutathione S-transferase, a 26 kDa protein whose DNA sequence is frequently integrated into expression vectors for production of recombinant proteins. A […], was cloned into vector pFastBacTM 1 (Thermo Fisher Scientific) with an N-terminal GST tag followed by a TEV protease site to produce the TIPARP fusion protein, TIPARP GST-(TEV). TR-FRET” for “TR-FRET”, “nm. […] [table]” for “nm.”

| SMILES | EC50 (DLD-1 BRCA2 (−/−) cells; Homo sapiens, 144 h) | IC50 (PARP1 GST) | EC50 (NCI-H1373 cells; Homo sapiens, NCI-H1373, 144 h) | EC50 (DLD-1 parent cells; Homo sapiens, 144 h) | IC50 (TIPARP GST-(TEV)) | PARP1/TIPARP IC50 Ratio (TIPARP GST-(TEV)) | EC50 (DLD-1 BRCA2 (−/−) cells) | EC50 (NCI-H1373 cells) | EC50 (DLD-1 parent cells) |
| --- | --- | --- | --- | --- | --- | --- | --- | --- | --- |
| C[C@H]1CN(C(=O)[C@H]2C[C@@H](c3c[nH]c(=O)c(C(F)(F)F)c3)C2)CCN1c1ncc(C(F)(F)F)cn1 [Example 8, 5-[(1R,3s)-3-{(3S)-3-methyl-4-[5-(trifluoromethyl)pyrimidin-2-yl]piperazine-1-carbonyl}cyclobutyl]-3-(trifluoromethyl)pyridin-2(1H)-one] | 5730 nM | 1200 nM | 55.9 nM | > 30000 nM | 8.79 nM | 137 | – | – | – |
| O=c1[nH]cc(C[C@H]2C[C@@H](C(=O)N3CCN(c4ncc(C(F)(F)F)cn4)CC3)C2)cc1C(F)(F)F [Example 29, 3-(trifluoromethyl)-5-{[(1s,3s)-3-{4-[5-(trifluoromethyl)pyrimidin-2-yl]piperazine-1-carbonyl}cyclobutyl]methyl}pyridin-2(1H)-one] | – | 263 nM | – | – | 1.75 nM | 150 | 230 nM | 18.2 nM | 5960 nM |
| C[C@@H]1CN(C(=O)[C@H]2C[C@@H](Cc3c[nH]c(=O)c(C(F)(F)F)c3)C2)CCN1c1ncc(C(F)(F)F)cn1 [Example 15, 5-{[(1S,3s)-3-{(3R)-3-methyl-4-[5-(trifluoromethyl)pyrimidin-2-yl]piperazine-1-carbonyl}cyclobutyl]methyl}-3-(trifluoromethyl)pyridin-2(1H)-one] | 1380 nM | 417 nM | 14.8 nM | 10300 nM | 2.15 nM | 194 | – | – | – |
| C[C@@H]1CN(C(=O)[C@H]2C[C@@H](c3c[nH]c(=O)c(C(F)(F)F)c3)C2)C[C@H](C)N1c1ncc(C(F)(F)F)cn1 [Example 4, 5-[(1s,3s)-3-{(3R,5S)-3,5-dimethyl-4-[5-(trifluoromethyl)pyrimidin-2-yl]piperazine-1-carbonyl}cyclobutyl]-3-(trifluoromethyl)pyridin-2(1H)-one] | 7170 nM | 3120 nM | 11.1 nM | 23900 nM | 5.7 nM | 547 | – | – | – |
| C[C@H]1CN(c2ncc(C(F)(F)F)cn2)CCN1C(=O)[C@H]1C[C@@H](c2c[nH]c(=O)c(C(F)(F)F)c2)C1 [Example 6, 5-[(1R,3s)-3-{(2S)-2-methyl-4-[5-(trifluoromethyl)pyrimidin-2-yl]piperazine-1-carbonyl}cyclobutyl]-3-(trifluoromethyl)pyridin-2(1H)-one] | 1130 nM | 283 nM | 45.4 nM | 14400 nM | 3.43 nM | 82.5 | – | – | – |
| C[C@H]1CN(C(=O)[C@H]2C[C@@H](Cc3c[nH]c(=O)c(C(F)(F)F)c3)C2)CCN1c1ncc(C(C)(C)O)cn1 [Example 20, 5-{[(1R,3s)-3-{(3S)-4-[5-(2-hydroxypropan-2-yl)pyrimidin-2-yl]-3-methylpiperazine-1-carbonyl}cyclobutyl]methyl}-3-(trifluoromethyl)pyridin-2(1H)-one] | 3000 nM | 2130 nM | 81.7 nM | > 30000 nM | 6.95 nM | 306 | – | – | – |
| C[C@@H]1CN(c2ncc(C(F)(F)F)cn2)C[C@H](C)N1C(=O)[C@H]1C[C@@H](c2c[nH]c(=O)c(C(F)(F)F)c2)C1 [Example 2, 5-[(1s,3s)-3-{(2R,6S)-2,6-dimethyl-4-[5-(trifluoromethyl)pyrimidin-2-yl]piperazine-1-carbonyl}cyclobutyl]-3-(trifluoromethyl)pyridin-2(1H)-one] | 16500 nM | 5020 nM | 32.2 nM | 22100 nM | 3.75 nM | 1340 | – | – | – |
